Holding throughout (format): functional
Assay [1] deals with Staphylococcus aureus. As to the kind of experiment: Antibacterial activity against methicillin-sensitive Staphylococcus aureus 16-1 clinical isolate after 18 hrs by agar dilution method. Particulars: 16-1, 18 h. On the technique in general: In agar dilution the substance is mixed into plates at graded concentrations.
Assay [2] has as its system Staphylococcus aureus. As to the kind of experiment: Antibacterial activity against methicillin-resistant Staphylococcus aureus ATCC 33591 after 18 hrs by agar dilution method. The conditions noted are these: ATCC 33591, 18 h.
The subject of assay [3] is Staphylococcus aureus. In words: Antibacterial activity against methicillin-sensitive Staphylococcus aureus ATCC 29213 after 18 hrs by agar dilution method. The conditions noted are these: ATCC 29213, 18 h.
For assay [4], the system named is Staphylococcus aureus. As to the kind of experiment: Antibacterial activity against methicillin-resistant Staphylococcus aureus ATCC BAA-976 after 18 hrs by agar dilution method. The conditions noted are these: ATCC BAA-976, 18 h.
Assay [5] concerns Staphylococcus aureus. In words: Antibacterial activity against methicillin-resistant Staphylococcus aureus 13-23 clinical isolate after 18 hrs by agar dilution method. The conditions noted are these: 13-23, 18 h.
For assay [6], the system named is Staphylococcus aureus. In words: Antibacterial activity against methicillin-resistant Staphylococcus aureus 16-34 clinical isolate after 18 hrs by agar dilution method. Particulars: 16-34, 18 h.
The test system of assay [7] is Staphylococcus aureus. In words: Antibacterial activity against methicillin-resistant Staphylococcus aureus 16-30 clinical isolate after 18 hrs by agar dilution method. Particulars: 16-30, 18 h.
For assay [8], the system named is Staphylococcus aureus. As to the kind of experiment: Antibacterial activity against methicillin-resistant Staphylococcus aureus 13-18 clinical isolate after 18 hrs by agar dilution method. Particulars: 13-18, 18 h.
Assay [9] deals with Staphylococcus aureus. In words: Antibacterial activity against methicillin-resistant Staphylococcus aureus ATCC 43300 after 18 hrs by agar dilution method. Particulars: ATCC 43300, 18 h.
Assay [10] concerns Staphylococcus aureus. In words: Antibacterial activity against methicillin-resistant Staphylococcus aureus ATCC BAA-1708 after 18 hrs by agar dilution method. The conditions noted are these: ATCC BAA-1708, 18 h.

Where only a bound is given, the exact number is not on record here.

Broadly, the MIC is the lowest concentration found to suppress growth. Read a high MIC as weaker potency.

Take `COc1ccc2c(c[n+]3c4c2cc(Cc2ccc(F)c(C(F)(F)F)c2)c2c5c(cc(c24)CC3)OCO5)c1OC.[Br-]`: the MIC with Staphylococcus aureus [1] was determined as 8 µg/mL; in the assay on Staphylococcus aureus [2], 32 µg/mL; in the assay on Staphylococcus aureus [3], 32 µg/mL; against Staphylococcus aureus [4] it was 32 µg/mL; against Staphylococcus aureus [5], 32 µg/mL; against Staphylococcus aureus [6], 64 µg/mL. The MIC against Staphylococcus aureus [7] is 16 µg/mL; in the assay with Staphylococcus aureus [8] it was 16 µg/mL; in the assay on Staphylococcus aureus [9], 32 µg/mL; against Staphylococcus aureus [10], 32 µg/mL.

With `COc1ccc2c(Cc3ccccc3)c3[n+](cc2c1OC)CCc1cc2c(cc1-3)OCO2.[Br-]`, the minimal inhibitory concentration (MIC) in the assay with Staphylococcus aureus [1] stood at 16 µg/mL; in the assay with Staphylococcus aureus [2], 64 µg/mL; against Staphylococcus aureus [3], 32 µg/mL; with Staphylococcus aureus [4], 32 µg/mL; with Staphylococcus aureus [5], 32 µg/mL; in the assay on Staphylococcus aureus [6] it was 64 µg/mL. Also, the minimum inhibitory concentration (MIC) against Staphylococcus aureus [7] came out at 64 µg/mL; against Staphylococcus aureus [8] it was 32 µg/mL; with Staphylococcus aureus [9], 64 µg/mL; with Staphylococcus aureus [10], 32 µg/mL.

For the compound `COc1ccc2c(c[n+]3c4c2cc(Cc2ccc(Cl)cc2)c2c5c(cc(c24)CC3)OCO5)c1OC.[Br-]`, the MIC against Staphylococcus aureus [1] was 8 µg/mL; in the assay on Staphylococcus aureus [2], 8 µg/mL; against Staphylococcus aureus [3] it was 8 µg/mL; against Staphylococcus aureus [4] it was 8 µg/mL; against Staphylococcus aureus [5], 8 µg/mL; with Staphylococcus aureus [6] it was 4 µg/mL. Also, the MIC was determined as 4 µg/mL against Staphylococcus aureus [7], 8 µg/mL with Staphylococcus aureus [8], 32 µg/mL against Staphylococcus aureus [9] and 32 µg/mL in the assay with Staphylococcus aureus [10].

For the compound `COc1ccc2c(c[n+]3c4c2cc(Cc2ccc(C#N)cc2)c2c5c(cc(c24)CC3)OCO5)c1OC.[Br-]`, the MIC in the assay with Staphylococcus aureus [1], against Staphylococcus aureus [2], against Staphylococcus aureus [3], in the assay on Staphylococcus aureus [4], in the assay on Staphylococcus aureus [5] and against Staphylococcus aureus [6] was greater than 64 µg/mL in each case. Further, the minimal inhibitory concentration (MIC) in the assay on Staphylococcus aureus [7], against Staphylococcus aureus [8], in the assay with Staphylococcus aureus [9] and in the assay with Staphylococcus aureus [10] was greater than 64 µg/mL in each case.

Regarding `COc1ccc2c(c[n+]3c4c2cc(Cc2ccc(F)cc2F)c2c5c(cc(c24)CC3)OCO5)c1OC.[Br-]`, the MIC in the assay on Staphylococcus aureus [1] came out at 2 µg/mL; in the assay on Staphylococcus aureus [2] it was 4 µg/mL; in the assay on Staphylococcus aureus [3], 4 µg/mL; in the assay with Staphylococcus aureus [4], 4 µg/mL; against Staphylococcus aureus [5], 4 µg/mL; in the assay with Staphylococcus aureus [6] it was 2 µg/mL. In addition, the minimum inhibitory concentration (MIC) against Staphylococcus aureus [7] came out at 2 µg/mL; with Staphylococcus aureus [8], 4 µg/mL; in the assay with Staphylococcus aureus [9] it was 8 µg/mL; with Staphylococcus aureus [10], 4 µg/mL.

As for `COc1ccc2c(c[n+]3c4c2cc(Cc2cccnc2)c2c5c(cc(c24)CC3)OCO5)c1OC.[Br-]`, the MIC came out at 16 µg/mL against Staphylococcus aureus [1]; 32 µg/mL against Staphylococcus aureus [2]; 16 µg/mL against Staphylococcus aureus [3]; 16 µg/mL against Staphylococcus aureus [4]; 32 µg/mL against Staphylococcus aureus [5]; 32 µg/mL in the assay with Staphylococcus aureus [6]. Moreover, the MIC in the assay with Staphylococcus aureus [7] is 32 µg/mL; against Staphylococcus aureus [8], 32 µg/mL; against Staphylococcus aureus [9], greater than 64 µg/mL; against Staphylococcus aureus [10] it was 32 µg/mL.

Take `COc1ccc2c(c[n+]3c4c2cc(Cc2ccc(Br)cc2)c2c5c(cc(c24)CC3)OCO5)c1OC.[Br-]`: the minimal inhibitory concentration (MIC) with Staphylococcus aureus [1], in the assay with Staphylococcus aureus [2], with Staphylococcus aureus [3], against Staphylococcus aureus [4], with Staphylococcus aureus [5] and against Staphylococcus aureus [6] was 16 µg/mL each time. The MIC against Staphylococcus aureus [7] was determined as 16 µg/mL; with Staphylococcus aureus [8], 16 µg/mL; against Staphylococcus aureus [9], 32 µg/mL; with Staphylococcus aureus [10], 64 µg/mL.

Turning to `COc1ccc2c(c[n+]3c4c2cc(Cc2ccc(C(C)C)cc2)c2c5c(cc(c24)CC3)OCO5)c1OC.[Br-]`, the minimal inhibitory concentration (MIC) against Staphylococcus aureus [1] came out at 8 µg/mL; against Staphylococcus aureus [2], 8 µg/mL; against Staphylococcus aureus [3], 8 µg/mL; against Staphylococcus aureus [4] it was 16 µg/mL; with Staphylococcus aureus [5], 32 µg/mL; against Staphylococcus aureus [6], 16 µg/mL. The MIC against Staphylococcus aureus [7] was found to be 16 µg/mL; in the assay with Staphylococcus aureus [8], 32 µg/mL; in the assay on Staphylococcus aureus [9], 32 µg/mL; with Staphylococcus aureus [10], 32 µg/mL.

Turning to `COC(=O)c1ccc(Cc2cc3c4ccc(OC)c(OC)c4c[n+]4c3c3c(cc5c(c23)OCO5)CC4)cc1.[Br-]`, the minimal inhibitory concentration (MIC) in the assay with Staphylococcus aureus [1] was 64 µg/mL; in the assay with Staphylococcus aureus [2], 32 µg/mL; in the assay with Staphylococcus aureus [3], 32 µg/mL; against Staphylococcus aureus [4] it was 32 µg/mL; against Staphylococcus aureus [5] it was 64 µg/mL; in the assay with Staphylococcus aureus [6], greater than 64 µg/mL. Also, the MIC in the assay on Staphylococcus aureus [7] was determined as 64 µg/mL; against Staphylococcus aureus [8], 32 µg/mL; in the assay on Staphylococcus aureus [9], 64 µg/mL; against Staphylococcus aureus [10] it was 64 µg/mL.

Consider `COc1ccc2c(c[n+]3c4c2cc(Cc2cc(C(F)(F)F)cc(C(F)(F)F)c2)c2c5c(cc(c24)CC3)OCO5)c1OC.[Br-]`, for which the MIC against Staphylococcus aureus [1], in the assay on Staphylococcus aureus [2], in the assay with Staphylococcus aureus [3], in the assay on Staphylococcus aureus [4], in the assay with Staphylococcus aureus [5] and in the assay with Staphylococcus aureus [6] was greater than 64 µg/mL in each case. For the same compound, the minimal inhibitory concentration (MIC) in the assay on Staphylococcus aureus [7], against Staphylococcus aureus [8], against Staphylococcus aureus [9] and in the assay with Staphylococcus aureus [10] was greater than 64 µg/mL each time.

For `COc1ccc2c(c[n+]3c4c2cc(Cc2ccc(C)cc2)c2c5c(cc(c24)CC3)OCO5)c1OC.[Br-]`, the MIC against Staphylococcus aureus [1] was 2 µg/mL; with Staphylococcus aureus [2], 2 µg/mL; against Staphylococcus aureus [3], 2 µg/mL; against Staphylococcus aureus [4] it was 2 µg/mL; with Staphylococcus aureus [5] it was 4 µg/mL; against Staphylococcus aureus [6] it was 2 µg/mL. Further, the MIC in the assay on Staphylococcus aureus [7] is 2 µg/mL; against Staphylococcus aureus [8], 4 µg/mL; with Staphylococcus aureus [9] it was 4 µg/mL; in the assay on Staphylococcus aureus [10], 8 µg/mL.

On to `COc1ccc2c(c[n+]3c4c2cc(Cc2cccc(C)c2)c2c5c(cc(c24)CC3)OCO5)c1OC.[Br-]`, for which the MIC against Staphylococcus aureus [1] turned out to be 2 µg/mL; against Staphylococcus aureus [2], 4 µg/mL; in the assay with Staphylococcus aureus [3], 2 µg/mL; with Staphylococcus aureus [4], 2 µg/mL; in the assay with Staphylococcus aureus [5], 4 µg/mL; against Staphylococcus aureus [6] it was 2 µg/mL. Moreover, the MIC amounted to 2 µg/mL in the assay with Staphylococcus aureus [7], 4 µg/mL against Staphylococcus aureus [8], 4 µg/mL with Staphylococcus aureus [9] and 4 µg/mL against Staphylococcus aureus [10].

For the compound `COc1ccc2c(c[n+]3c4c2cc(Cc2ccccc2[N+](=O)[O-])c2c5c(cc(c24)CC3)OCO5)c1OC.[Br-]`, the MIC against Staphylococcus aureus [1] stood at 8 µg/mL; against Staphylococcus aureus [2] it was 16 µg/mL; against Staphylococcus aureus [3], 8 µg/mL; with Staphylococcus aureus [4], 8 µg/mL; in the assay with Staphylococcus aureus [5] it was 16 µg/mL; in the assay on Staphylococcus aureus [6], 8 µg/mL. In addition, the minimal inhibitory concentration (MIC) with Staphylococcus aureus [7] turned out to be 8 µg/mL; against Staphylococcus aureus [8], 8 µg/mL; in the assay on Staphylococcus aureus [9] it was 32 µg/mL; in the assay on Staphylococcus aureus [10] it was 64 µg/mL.

In the case of `COc1ccc2c(c[n+]3c4c2cc(Cc2ccc([N+](=O)[O-])cc2)c2c5c(cc(c24)CC3)OCO5)c1OC.[Br-]`, the minimal inhibitory concentration (MIC) with Staphylococcus aureus [1], against Staphylococcus aureus [2], in the assay with Staphylococcus aureus [3], against Staphylococcus aureus [4], in the assay with Staphylococcus aureus [5] and in the assay on Staphylococcus aureus [6] was greater than 64 µg/mL in each case. Further, the minimal inhibitory concentration (MIC) in the assay on Staphylococcus aureus [7], against Staphylococcus aureus [8], against Staphylococcus aureus [9] and against Staphylococcus aureus [10] was greater than 64 µg/mL throughout.

With `COc1ccc2c(c[n+]3c4c2ccc2c5c(cc(c24)CC3)OCO5)c1OC.[Br-]`, the minimal inhibitory concentration (MIC) against Staphylococcus aureus [1], in the assay on Staphylococcus aureus [2], against Staphylococcus aureus [3], against Staphylococcus aureus [4], in the assay on Staphylococcus aureus [5] and in the assay on Staphylococcus aureus [6] was greater than 64 µg/mL each time. The MIC against Staphylococcus aureus [7], against Staphylococcus aureus [8], against Staphylococcus aureus [9] and against Staphylococcus aureus [10] was greater than 64 µg/mL in each case.
